Test [1] concerns the target T1, SYK kinase (Homo sapiens, UniProt P43405).
T1 construct: purchased Invitrogen, Carlsbad
Nature of the test: SYK assay (OMNIA Kinase Assay, Invitrogen). The test is classed as biochemical. Particulars: apparent Ki calculated from the IC50 using the Cheng-Prusoff equation; 1 mM ATP, 10 μM Peptide Substrate; read-out: SYK Activities: Ki. In outline: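 Continuous SOX-fluorescence (Omnia) readout of Tyr 7 peptide (10 μM) phosphorylation with 1 mM ATP and 0.2 mM DTT at 30° C, started by SYK addition. Fluorescence (λex 360/λem 485 nm) was read every 30 s for 30 min. IC50 from velocity vs concentration; apparent Ki via Cheng-Prusoff.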

Test [2] has as its target MYLK (Homo sapiens, UniProt Q15746). Nature of the test: MYLK assay (LanthaScreen Eu Kinase Binding Assay). Conditions: 5 nM MYLK, 30 nM tracer 236, RT 1 h; read-out: MYLK Activites: IC50. On the procedure: In the assay LanthaScreen™ Eu Kinase Binding Assay by Invitrogen Corporation (Carlsbad) the effect of invention of a compound on the phosphorylation is determined by measurement of fluorescence intensity emission ratio based on the binding and displacement of a proprietary, Alexa Fluor® 647-labeled, ATP-competitive kinase inhibitor scaffold (kinase tracer) to the kinase of interest as described above.
To the wells of an 384 well small volume plate (Greiner, Frickenhausen) are added (i) the compound under test in 5% DMSO/distilled water (5 μl), (ii) 5 μl of the kinase antibody mixture resulting in a final concentration 5 nM MYLK, 2 nM EU-Anti-GST antibody in 1× kinase buffer A. The reaction was started with addition of (iii) 5 μl resulting in a final concentration of 30 nM tracer 236. The assay plate was incubated at RT for 1 h and fluorescence intensitiy readings were collected using a TECAN M1000 at two wavelengthes of λex 340/λem 615 nm and λex 340/λem 665 nm with a delay time of 100 μs and an integration time of 200 μs after 60 minutes. The emission ratio was calculated by division of the acceptor/tracer emission ([…]) by the antibody/donor emission ([…]). The inhibitor concentration was plotted versus the emission ratio to determine the IC50 using XLFit 5.0 (IDBS, Guildford) to fit to a sigmoidal dose response curve with a variable slope.

Test [3] concerns the target LRRK2 (Homo sapiens, UniProt Q5S007). Description: LRRK2 assay (LanthaScreen Eu Kinase Binding Assay). Particulars: 5 nM LRRK2, 10 nM tracer 236, RT 1 h; read-out: LRRK2 Activites: IC50. In outline: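 Kinase binding was detected by europium anti-tag antibody FRET with a competing tracer, so inhibitor binding lowers the FRET signal. IC50 came from a variable-slope sigmoidal fit of emission ratio against inhibitor concentration.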
(Time-resolved FRET reads energy transfer from a long-lived donor to a nearby acceptor.)

Bounds are passed on as bounds.

Sequence of MYLK (Q15746 whole entry): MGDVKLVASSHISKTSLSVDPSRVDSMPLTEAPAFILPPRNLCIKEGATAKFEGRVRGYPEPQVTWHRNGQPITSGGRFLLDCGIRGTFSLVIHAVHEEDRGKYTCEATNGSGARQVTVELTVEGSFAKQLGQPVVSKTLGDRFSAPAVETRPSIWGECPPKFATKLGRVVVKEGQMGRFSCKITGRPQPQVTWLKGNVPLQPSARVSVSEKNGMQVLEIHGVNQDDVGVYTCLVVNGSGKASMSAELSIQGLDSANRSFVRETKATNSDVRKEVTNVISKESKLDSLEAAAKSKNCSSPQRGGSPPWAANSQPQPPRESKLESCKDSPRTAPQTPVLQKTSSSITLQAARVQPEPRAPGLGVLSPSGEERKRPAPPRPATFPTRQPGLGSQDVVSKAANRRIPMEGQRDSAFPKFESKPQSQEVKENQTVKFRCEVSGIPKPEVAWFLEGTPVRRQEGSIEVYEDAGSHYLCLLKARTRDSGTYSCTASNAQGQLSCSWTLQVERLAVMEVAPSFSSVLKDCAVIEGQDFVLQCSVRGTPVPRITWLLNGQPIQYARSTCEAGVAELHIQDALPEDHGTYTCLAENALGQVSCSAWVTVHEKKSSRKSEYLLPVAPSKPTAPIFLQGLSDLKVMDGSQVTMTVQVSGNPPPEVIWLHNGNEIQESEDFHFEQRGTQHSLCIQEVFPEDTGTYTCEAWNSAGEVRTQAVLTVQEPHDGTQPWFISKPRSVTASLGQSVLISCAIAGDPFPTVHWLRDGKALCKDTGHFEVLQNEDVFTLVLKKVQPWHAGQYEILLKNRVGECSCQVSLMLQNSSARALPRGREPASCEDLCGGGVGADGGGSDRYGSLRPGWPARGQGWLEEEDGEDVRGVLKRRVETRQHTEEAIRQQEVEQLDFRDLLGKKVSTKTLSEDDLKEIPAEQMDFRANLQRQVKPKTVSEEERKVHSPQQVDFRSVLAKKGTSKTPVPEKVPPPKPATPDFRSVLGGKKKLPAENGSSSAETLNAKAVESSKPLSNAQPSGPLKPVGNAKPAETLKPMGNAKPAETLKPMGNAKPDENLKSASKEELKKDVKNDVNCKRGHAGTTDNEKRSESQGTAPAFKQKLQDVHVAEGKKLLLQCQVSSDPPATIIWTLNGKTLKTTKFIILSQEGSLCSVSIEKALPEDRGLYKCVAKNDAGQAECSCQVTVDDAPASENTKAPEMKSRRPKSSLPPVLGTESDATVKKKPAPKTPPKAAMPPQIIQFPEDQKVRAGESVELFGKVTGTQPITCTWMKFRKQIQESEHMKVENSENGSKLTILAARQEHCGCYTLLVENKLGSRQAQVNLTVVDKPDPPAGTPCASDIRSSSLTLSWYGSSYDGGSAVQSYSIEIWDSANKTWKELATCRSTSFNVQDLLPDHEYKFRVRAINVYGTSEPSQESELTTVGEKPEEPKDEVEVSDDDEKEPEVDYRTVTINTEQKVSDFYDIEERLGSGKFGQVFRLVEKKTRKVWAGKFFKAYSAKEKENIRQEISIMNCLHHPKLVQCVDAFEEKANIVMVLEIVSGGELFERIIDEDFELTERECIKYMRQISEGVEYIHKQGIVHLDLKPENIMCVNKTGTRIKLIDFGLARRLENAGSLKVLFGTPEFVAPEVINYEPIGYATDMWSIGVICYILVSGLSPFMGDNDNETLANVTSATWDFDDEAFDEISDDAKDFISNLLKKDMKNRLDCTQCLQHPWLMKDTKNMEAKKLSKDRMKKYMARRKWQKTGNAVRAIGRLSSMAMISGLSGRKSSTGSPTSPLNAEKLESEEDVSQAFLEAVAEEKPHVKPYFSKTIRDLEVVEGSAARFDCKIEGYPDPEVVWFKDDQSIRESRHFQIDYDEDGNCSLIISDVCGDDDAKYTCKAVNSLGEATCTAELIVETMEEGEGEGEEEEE
Sequence of LRRK2 (Q5S007 970-2527 limits assumed): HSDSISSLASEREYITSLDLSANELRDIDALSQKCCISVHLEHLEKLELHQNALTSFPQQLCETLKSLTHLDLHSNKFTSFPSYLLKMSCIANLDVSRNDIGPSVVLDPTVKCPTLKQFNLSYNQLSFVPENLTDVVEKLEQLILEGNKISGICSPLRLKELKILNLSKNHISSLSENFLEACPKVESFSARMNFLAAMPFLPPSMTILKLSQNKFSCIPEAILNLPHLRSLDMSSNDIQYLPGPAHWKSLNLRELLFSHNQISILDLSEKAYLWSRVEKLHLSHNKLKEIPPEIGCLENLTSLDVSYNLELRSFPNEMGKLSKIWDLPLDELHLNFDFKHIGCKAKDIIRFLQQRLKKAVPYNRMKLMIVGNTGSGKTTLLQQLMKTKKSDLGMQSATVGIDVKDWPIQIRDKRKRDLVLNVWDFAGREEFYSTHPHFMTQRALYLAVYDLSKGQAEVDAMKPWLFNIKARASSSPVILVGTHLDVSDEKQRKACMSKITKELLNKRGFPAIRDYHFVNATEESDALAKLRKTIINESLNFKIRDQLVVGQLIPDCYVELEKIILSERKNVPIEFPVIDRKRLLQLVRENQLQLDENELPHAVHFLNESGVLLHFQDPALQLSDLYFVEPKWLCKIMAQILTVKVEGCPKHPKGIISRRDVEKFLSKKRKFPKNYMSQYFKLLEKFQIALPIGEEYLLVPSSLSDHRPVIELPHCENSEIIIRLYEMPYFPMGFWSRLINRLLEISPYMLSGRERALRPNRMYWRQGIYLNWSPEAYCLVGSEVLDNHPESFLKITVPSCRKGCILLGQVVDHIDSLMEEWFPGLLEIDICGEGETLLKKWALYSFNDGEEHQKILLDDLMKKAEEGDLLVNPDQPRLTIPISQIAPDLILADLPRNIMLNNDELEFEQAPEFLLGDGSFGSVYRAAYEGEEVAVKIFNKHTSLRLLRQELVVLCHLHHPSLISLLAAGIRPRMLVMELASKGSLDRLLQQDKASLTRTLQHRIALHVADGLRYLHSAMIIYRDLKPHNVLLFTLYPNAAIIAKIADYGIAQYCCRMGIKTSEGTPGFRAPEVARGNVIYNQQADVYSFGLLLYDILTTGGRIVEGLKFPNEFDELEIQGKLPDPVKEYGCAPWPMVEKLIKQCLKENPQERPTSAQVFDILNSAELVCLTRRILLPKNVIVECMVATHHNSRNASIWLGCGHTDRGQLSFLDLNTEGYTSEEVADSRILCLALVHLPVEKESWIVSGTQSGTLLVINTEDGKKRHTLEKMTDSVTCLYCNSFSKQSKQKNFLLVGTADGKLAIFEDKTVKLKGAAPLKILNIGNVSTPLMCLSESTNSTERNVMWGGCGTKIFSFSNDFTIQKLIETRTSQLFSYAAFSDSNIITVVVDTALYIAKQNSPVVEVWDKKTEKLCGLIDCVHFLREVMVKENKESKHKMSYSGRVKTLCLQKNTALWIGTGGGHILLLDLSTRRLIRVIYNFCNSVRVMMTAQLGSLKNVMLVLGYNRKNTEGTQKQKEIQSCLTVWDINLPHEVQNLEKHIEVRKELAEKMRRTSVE

For `COc1cc(OC)c2nc(Nc3ccc(N4CCN(C5CC5)CC4)cc3)c3n[nH]cc3c2c1` [Example #252, [4-(4-Cyclopropyl-piperazin-1-yl)-phenyl]-(6,8-dimethoxy-2H-pyrazolo[3,4-c]quinolin-4-yl)-amine], in test [1], the Ki is 100 to 1000 nM. Besides, the IC50 in test [2] was below 5000 nM; in test [3], 100 to 1000 nM.

In the case of `COc1ccc2nc(Nc3ccc(N4CCOCC4=O)cc3)c3n[nH]cc3c2c1` [Example #87, 4-[4-(8-Methoxy-2H-pyrazolo[3,4-c]quinolin-4-ylamino)-phenyl]-morpholin-3-one], in test [1], the Ki is 100 to 1000 nM. For the same compound, the figures for the IC50 in test [2] and in test [3] were below 5000 nM and 10 to 100 nM, respectively.

In the case of `COc1ccc2nc(Nc3ccc4c(c3)CN(C)C4)c3n[nH]cc3c2c1` [Example #294, 8-methoxy-N-(2-methylisoindolin-5-yl)-2H-pyrazolo[3,4-c]quinolin-4-amine], in test [1], the Ki is 10 to 100 nM. The IC50 in test [2] is below 5000 nM; in test [3], 100 to 1000 nM.

With `COc1cccc2nc(Nc3ccc(CN(C)C)cc3)c3[nH]ncc3c12` [Example #353, N-(4-((dimethylamino)methyl)phenyl)-9-methoxy-3H-pyrazolo[3,4-c]quinolin-4-amine], in test [1], the Ki is 10 to 100 nM. The IC50 was below 5000 nM in test [2] and 10 to 100 nM in test [3].

As to `COc1ccc2nc(Nc3cccc(C(N)=O)c3)c3n[nH]cc3c2c1` [Example #52, 3-(8-Methoxy-2H-pyrazolo[3,4-c]quinolin-4-ylamino)-benzamide], in test [1], the Ki is 100 to 1000 nM. The IC50 was below 5000 nM in test [2] and 100 to 1000 nM in test [3].

For `COc1cccc2c1nc(Nc1ccc3[nH]ncc3c1)c1n[nH]cc12` [Example #268, (1H-Indazol-5-yl)-(6-methoxy-2H-pyrazolo[3,4-c]quinolin-4-yl)-amine], the Ki in test [1] is 10 to 100 nM. Besides, the figures for the half-maximal inhibitory concentration (IC50) in test [2] and in test [3] were below 5000 nM and 100 to 1000 nM, respectively.

As for `COc1ccc2c(c1)nc(Nc1ccc3cn[nH]c3c1)c1n[nH]cc12` [Example #172, (1H-Indazol-6-yl)-(7-methoxy-2H-pyrazolo[3,4-c]quinolin-4-yl)-amine], the Ki in test [1] was 10 to 100 nM. Further, the values for the IC50 in test [2] and in test [3] were below 5000 nM and 100 to 1000 nM, respectively.

Turning to `COc1ccc2nc(Nc3ccc(N4CCN(C5CCCC5)CC4)cc3)c3n[nH]cc3c2c1` [Example #269, [4-(4-Cyclopentyl-piperazin-1-yl)-phenyl]-(8-methoxy-2H-pyrazolo[3,4-c]quinolin-4-yl)-amine], the Ki in test [1] was 100 to 1000 nM. The IC50 in test [2] is below 5000 nM; in test [3], 10 to 100 nM.

On to `COc1ccc2nc(Nc3ccc4cc(C(=O)O)ccc4c3)c3n[nH]cc3c2c1` [Example #286, 6-((8-methoxy-2H-pyrazolo[3,4-c]quinolin-4-yl)amino)-2-naphthoic acid], for which the Ki in test [1] is 10 to 100 nM. The IC50 in test [2] is below 5000 nM; in test [3] it was below 10 nM.

With `COc1ccc2nc(Nc3ccc(CN4CCCC4)cc3)c3n[nH]cc3c2c1` [Example #234, (8-Methoxy-2H-pyrazolo[3,4-c]quinolin-4-yl)-(4-pyrrolidin-1-ylmethyl-phenyl)-amine], in test [1], the Ki is 10 to 100 nM. For the same compound, the IC50 in test [2] was below 5000 nM; in test [3], 10 to 100 nM.

On to `COc1cc(OC)c2nc(Nc3ccc(CN(C)C)cc3)c3n[nH]cc3c2c1` [Example #284, (6,8-Dimethoxy-2H-pyrazolo[3,4-c]quinolin-4-yl)-(4-dimethylaminomethyl-phenyl)-amine], for which the Ki in test [1] was 10 to 100 nM. For the same compound, the IC50 in test [2] is below 5000 nM; in test [3] it was 100 to 1000 nM.

`COc1cc2nc(Nc3ccc(N4CCOCC4)cc3)c3n[nH]cc3c2cc1OC` [Example #133, (7,8-Dimethoxy-2H-pyrazolo[3,4-c]quinolin-4-yl)-(4-morpholin-4-yl-phenyl)-amine]: in test [1], the Ki is 10 to 100 nM. Further, the 50% inhibitory concentration (IC50) in test [2] was below 5000 nM; in test [3], 100 to 1000 nM.

For `Cc1[nH]nc2c(Nc3ccc4cn[nH]c4c3)nc3ccccc3c12` [Example #209, (1H-Indazol-6-yl)-(1-methyl-2H-pyrazolo[3,4-c]quinolin-4-yl)-amine], the Ki in test [1] was below 10 nM. The values for the IC50 in test [2] and in test [3] were below 5000 nM and 10 to 100 nM, respectively.

Turning to `COc1ccc2nc(Nc3ccc(OC)c(O)c3)c3n[nH]cc3c2c1` [Example #118, 2-Methoxy-5-(8-methoxy-2H-pyrazolo[3,4-c]quinolin-4-ylamino)-phenol], the Ki in test [1] was below 10 nM. Besides, the IC50 in test [2] is below 5000 nM; in test [3], 10 to 100 nM.

As to `COc1ccc2nc(Nc3cc(OC)c(OC)c(OC)c3)c3n[nH]cc3c2c1` [Example #67, (8-Methoxy-2H-pyrazolo[3,4-c]quinolin-4-yl)-(3,4,5-trimethoxy-phenyl)-amine], in test [1], the Ki is below 10 nM. The IC50 was below 5000 nM in test [2] and 100 to 1000 nM in test [3].

In the case of `COc1ccc2nc(Nc3ccc(CN(C)C)cc3)c3n[nH]cc3c2c1` [Example #185, (4-Dimethylaminomethyl-phenyl)-(8-methoxy-2H-pyrazolo[3,4-c]quinolin-4-yl)-amine], the Ki in test [1] is 10 to 100 nM. For the same compound, the IC50 is below 5000 nM in test [2] and 100 to 1000 nM in test [3].

Take `CCN(CC)CCNC(=O)c1ccc(Nc2nc3ccc(OC)cc3c3c[nH]nc23)cc1` [Example #222, N-(2-Diethylamino-ethyl)-4-(8-methoxy-2H-pyrazolo[3,4-c]quinolin-4-ylamino)-benzamide]: in test [1], the Ki is below 10 nM. The results for the IC50 in test [2] and in test [3] were below 5000 nM and 100 to 1000 nM, respectively.

On to `CN1CCN(c2ccc(Nc3nc4ccc(I)cc4c4cn[nH]c34)cc2)CC1` [Example #333, 8-iodo-N-(4-(4-methylpiperazin-1-yl)phenyl)-3H-pyrazolo[3,4-c]quinolin-4-amine], for which the Ki in test [1] is below 10 nM. Besides, the IC50 in test [2] is below 5000 nM; in test [3] it was 100 to 1000 nM.

Consider `COc1cc2nc(Nc3cc(C4CC4)[nH]n3)c3n[nH]cc3c2cc1OC` [Example #150, (5-Cyclopropyl-1H-pyrazol-3-yl)-(7,8-dimethoxy-2H-pyrazolo[3,4-c]quinolin-4-yl)-amine], for which, in test [1], the Ki was 10 to 100 nM. For the same compound, the IC50 is below 5000 nM in test [2] and 10 to 100 nM in test [3].

`COc1ccc2nc(Nc3ccc4c(c3)COC4)c3n[nH]cc3c2c1` [Example #147, (1,3-Dihydro-isobenzofuran-5-yl)-(8-methoxy-2H-pyrazolo[3,4-c]quinolin-4-yl)-amine]: the Ki in test [1] is 10 to 100 nM. Further, the figures for the IC50 in test [2] and in test [3] were below 5000 nM and 10 to 100 nM, respectively.

In the case of `COc1ccc2nc(Nc3ccc(S(N)(=O)=O)cc3)c3n[nH]cc3c2c1` [Example #132, 4-(8-Methoxy-2H-pyrazolo[3,4-c]quinolin-4-ylamino)-benzenesulfonamide], the Ki in test [1] is 10 to 100 nM. Also, the IC50 in test [2] is below 5000 nM; in test [3], 10 to 100 nM.

On to `CCN1CCN(c2ccc(Nc3nc4ccc(OC)cc4c4c[nH]nc34)cc2)CC1` [Example #187, [4-(4-Ethyl-piperazin-1-yl)-phenyl]-(8-methoxy-2H-pyrazolo[3,4-c]quinolin-4-yl)-amine], for which, in test [1], the Ki was below 10 nM. The IC50 in test [2] is below 5000 nM; in test [3] it was 10 to 100 nM.

For the compound `COc1ccc2nc(Nc3ccc4c(c3)ncn4C)c3n[nH]cc3c2c1` [Example #126, (8-Methoxy-2H-pyrazolo[3,4-c]quinolin-4-yl)-(1-methyl-1H-benzoimidazol-5-yl)-amine], the Ki in test [1] is 100 to 1000 nM. Moreover, the IC50 is below 5000 nM in test [2] and 100 to 1000 nM in test [3].

For `COc1ccc2nc(Nc3ccc(N4CCN(C)CC4)c(C)c3)c3n[nH]cc3c2c1` [Example #183, (8-Methoxy-2H-pyrazolo[3,4-c]quinolin-4-yl)-[3-methyl-4-(4-methyl-piperazin-1-yl)-phenyl]-amine], the Ki in test [1] is 10 to 100 nM. The IC50 in test [2] was below 5000 nM; in test [3], 10 to 100 nM.

`COc1cccc2nc(Nc3ccc(N4CCN(C5CC5)CC4)cc3)c3n[nH]cc3c12` [Example #243, [4-(4-cyclopropyl-piperazin-1-yl)-phenyl]-(9-methoxy-2H-pyrazolo[3,4-c]quinolin-4-yl)-amine]: the Ki in test [1] is 10 to 100 nM. Further, the IC50 in test [2] was below 5000 nM; in test [3], 100 to 1000 nM.

With `COc1cccc2nc(Nc3ccc4cn[nH]c4c3)c3n[nH]cc3c12` [Example #203, (1H-Indazol-6-yl)-(9-methoxy-2H-pyrazolo[3,4-c]quinolin-4-yl)-amine], the Ki in test [1] was 10 to 100 nM. Moreover, the IC50 was below 5000 nM in test [2] and 10 to 100 nM in test [3].

The IC50 is the concentration needed to halve the response being measured.

Values taken from patent US9499535B2, “Kinase inhibitors” (ORIGENIS GMBH, priority 2011, dated 2016).
